Assay results from paper PMC10856454, “Discovery of Novel Antitumor Small-Molecule Agent with Dual Action of CDK2/p-RB and MDM2/p53” (Molecules, 2024).

Assays:
[1] = target: T1, hERG (Homo sapiens, UniProt Q12809); test: hERG assay in CHO cells stably expressing hERG; format: cell-based; settings: maximum concentration of 30 μM
T1 construct: expressed in transfected cells; host or cells: CHO cells
Method: This test method is a reference to a previous study. CHO cells stably expressing hERG were cultured with medium containing 10% FBS, penicillin (100 U/mL), and streptomycin (100 μg/mL) in DMEM/F12 in an incubator at 37 °C, 5% CO2. Cultures were passaged in a 1:5 ratio every 48 h. The medium consisted of 90% F12, 10% FBS, G418 (100 μg/mL), and hygromycin B (100 μg/mL). On the day of the assay, the current should reach a steady state for at least 1 min prior to administration of the compounds, and the test current was measured again after 5 min of stimulation with different concentrations of the drug.

[2] = system: HCT116 cells; test: Cell proliferation assay (Celltiter-Glo), HCT116; format: cell-based; settings: Homo sapiens, HCT-116, 72 h; HCT116 (overexpression of CCNE1), three days
Method: Celltiter-Glo Luminescent Cell Viability Assay (Promega, Madison, WI, USA) was used to detect cell viability according to the manufacturer’s instructions. This assay is a homogeneous method of determining the number of viable cells in a culture based on quantitation of the ATP present, an indicator of metabolically active cells. Cells were digested and paved in white-bottomed 96-well plates with 1000 cells/100 μL cell suspension solution; then, different concentrations of compounds were added the next day. TOV-21G and HCT116 were placed in the incubator for three days and OVCAR3 for five days. Then, 100 μL Celltiter-Glo solution was added and mixed for 5 min; the luminous intensity of each well was detected with a spectrophotometer (BioTek, Winooski, VT, USA). The experiment was repeated three times to calculate the cell survival rate.

[3] = system: OVCAR3 cells; test: Cell scratch test (migration), OVCAR3; format: cell-based; settings: 24 h
Method: Cells were inoculated into six-well plates as long as they spread to the bottom of the wells after wall attachment. After 24 h of wall attachment, cells were scratched with a 200 μL pipette tip and then replaced with low serum medium (1% FBS) containing different concentrations of compounds. Spot photographs were taken at 0 h and 24 h after the scratch was made. Data analysis was performed using Adobe Photoshop 2021 (Adobe Systems Software Ireland Ltd., San Jose, CA, USA) and Image J2 (National Institutes of Health, Bethesda, MD, USA).

[4] = Caco-2 permeability and transporter substrate evaluation; format: in vitro ADME; settings: human, Caco-2, 2 μM
Method: Caco-2 cells were cultured in MEM with 20% FBS, penicillin (100 U/mL), and streptomycin (100 μg/mL) at 37 °C in 95% air and 5% CO2. Cells were seeded into 96-well cell plates and cultured continuously for 24 days for subsequent experiments. […] After 120 min of incubation, samples were collected from the apical and basal ends. The […] content of each sample was determined by liquid chromatography–tandem mass spectrometry (LC-MS/MS). The apparent […] coefficient and efflux ratio were calculated.

[5] = system: MDM2 mRNA in OVCAR3 cells; test: q-PCR of MDM2 mRNA after III-13 treatment; format: cell-based, human; settings: q-PCR after 12 h of treatment
From the text: RNA was reverse transcribed with the HiScript Q RT SuperMix for qPCR (Vazyme, Nanjing, China), and quantitative real-time PCR (qPCR) was applied using SYBR Green qPCR Mix (SparkJade, Jinan, China) on the ABI Prism 7500 Fast Real-Time PCR System (Applied Biosystems, Carlsbad, CA, USA) following the manufacturer’s protocols. The comparative CT method (ΔΔCt) was used to calculate gene expression differences, with GAPDH as the reference gene. The following primers were used (human): • ZNF311 (sense, 5′-3′): […] • ZNF311 (antisense, 5′-3′): […] • TBX15 (sense, 5′-3′): […] • TBX15 ([…], 5′-3′): […] • ZNF784 (sense, 5′-3′): […] • ZNF784 (antisense, 5′-3′): […] • SIX3 (sense, 5′-3′): […] • SIX3 (antisense, 5′-3′): […] • KLLN (sense, 5′-3′): […] • KLLN (antisense, 5′-3′): […] • P2RY1 (sense, 5′-3′): […] • P2RY1 (antisense, 5′-3′): […] • MSH4 (sense, 5′-3′): […] • MSH4 (antisense, 5′-3′): […] • STAR (sense, 5′-3′): […] • STAR (antisense, 5′-3′): […] • SUMO4 (sense, 5′-3′): […] • SUMO4 (antisense, 5′-3′): […] • ZC3H12D (sense, 5′-3′): […] • ZC3H12D (antisense, 5′-3′): […] • CCNE1 (sense, 5′-3′): […] • CCNE1 (antisense, 5′-3′): […] • MDM2 (sense, 5′-3′): […] • MDM2 (antisense, 5′-3′): […] • GAPDH (sense, 5′-3′): […] • GAPDH (antisense, 5′-3′): […]

[6] = Pharmacokinetics study in rats; format: in vivo
Method: The pharmacokinetics study was created as described. […] Approximately 200 μL of whole blood was collected into heparin-coated tubes at 0.083, 0.25, 0.5, 1, 2, 3, 4, 6, 8, 12, and 24 h after dosing. Plasma was collected immediately by centrifugation (8000× g, 5 min, room temperature). Blood was placed in a heparinized Eppendorf™ tube. Plasma was centrifuged, and the concentration of compounds in the sample was determined by LCMS/MS after pre-treatment. Drug-concentration data were processed in a […] using WinNonlin™ 6.3 (Pharsight, Mountain View, CA, USA).

[7] = both sexes, rat, plasma, iv, 2 mg/kg i.v.
[8] = both sexes, rat, plasma, iv, 2 mg/kg, 2 mg/kg i.v.
[9] = both sexes, rat, plasma, po, 5 mg/kg i.g.
[10] = both sexes, rat, plasma, po, 5 mg/kg, 5 mg/kg i.g.

T1 sequence (Q12809 whole entry): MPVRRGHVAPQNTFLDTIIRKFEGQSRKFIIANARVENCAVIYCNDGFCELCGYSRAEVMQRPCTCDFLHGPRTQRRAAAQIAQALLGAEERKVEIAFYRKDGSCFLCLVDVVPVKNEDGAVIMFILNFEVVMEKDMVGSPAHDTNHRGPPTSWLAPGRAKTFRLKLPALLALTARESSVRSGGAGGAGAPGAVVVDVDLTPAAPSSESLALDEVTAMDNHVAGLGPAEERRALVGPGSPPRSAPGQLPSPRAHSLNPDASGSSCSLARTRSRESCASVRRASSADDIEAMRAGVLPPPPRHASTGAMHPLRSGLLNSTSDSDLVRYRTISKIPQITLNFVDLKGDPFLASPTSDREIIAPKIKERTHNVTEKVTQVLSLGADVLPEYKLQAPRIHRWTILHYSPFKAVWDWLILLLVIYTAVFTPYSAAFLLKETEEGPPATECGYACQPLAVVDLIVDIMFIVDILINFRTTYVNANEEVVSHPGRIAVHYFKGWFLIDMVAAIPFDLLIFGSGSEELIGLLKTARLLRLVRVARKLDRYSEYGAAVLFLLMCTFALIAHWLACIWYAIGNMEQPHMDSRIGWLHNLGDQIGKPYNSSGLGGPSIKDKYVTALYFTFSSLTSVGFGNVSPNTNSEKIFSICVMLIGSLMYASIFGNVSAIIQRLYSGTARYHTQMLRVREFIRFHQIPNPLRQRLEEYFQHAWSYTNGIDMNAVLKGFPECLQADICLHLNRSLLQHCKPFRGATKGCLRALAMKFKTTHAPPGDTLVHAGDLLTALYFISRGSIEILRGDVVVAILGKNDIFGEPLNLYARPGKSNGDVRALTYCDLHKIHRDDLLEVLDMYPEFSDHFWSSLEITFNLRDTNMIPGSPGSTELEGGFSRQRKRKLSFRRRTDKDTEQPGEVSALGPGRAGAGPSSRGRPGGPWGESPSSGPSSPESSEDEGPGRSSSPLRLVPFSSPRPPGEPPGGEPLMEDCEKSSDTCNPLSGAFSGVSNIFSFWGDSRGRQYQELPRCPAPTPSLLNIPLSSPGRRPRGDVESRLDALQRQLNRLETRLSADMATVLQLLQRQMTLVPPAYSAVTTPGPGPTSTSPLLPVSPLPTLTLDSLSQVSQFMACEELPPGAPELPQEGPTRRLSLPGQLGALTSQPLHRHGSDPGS

IC50 [2]: 60.9 nM
IC90 [2]: 235 nM
Papp A→B at 120 min, 2 µM [4]: 1.6 ×10⁻⁶ cm/s
Papp B→A at 120 min, 2 µM [4]: 8.56 ×10⁻⁶ cm/s
efflux ratio at 120 min, 2 µM [4]: 5.34
CL/F ([6]; 2 mg/kg i.v.): 41.2 mL/min/kg
Vz/F ([6]; 2 mg/kg i.v.): 1.3 ± 0.374 L/kg
AUClast ([6]; 2 mg/kg i.v., 2 mg/kg): 2.052 ± 0.337 µM·h
T1/2 ([6]; 2 mg/kg i.v., 2 mg/kg): 22.2 ± 7.8 min
AUClast ([6]; 5 mg/kg i.g., 5 mg/kg): 0.293 ± 0.0646 µM·h
T1/2 ([6]; 5 mg/kg i.g., 5 mg/kg): 50.4 ± 7.2 min
Cmax [6, 7]: 5500 ± 2310 nM
MRT last [6, 7]: 27 ± 15 min
AUC(0-t) [6, 8]: ~2.05 µM·h
half-life [6, 8]: ~22.2 min
bioavailability ([6]; both sexes, rat, plasma, oral, 5 mg/kg, 5 mg/kg i.g. vs 2 mg/kg i.v., read-out: F (oral bioavailability)): ~3.57%
Cmax [6, 9]: 389 ± 87.9 nM
MRT last [6, 9]: 51 ± 6 min
AUC(0-t) [6, 10]: ~0.293 µM·h
Tmax [6, 10]: ~15 min
half-life [6, 10]: ~50.4 min
Compound: CC1(C)CCN1C(=O)O[C@@H]1CC[C@H](c2cc(NC(=O)Cc3ccc(N4CCCC4=O)cc3)n[nH]2)C1 [III-13]
cardiotoxicity in hERG assay [1]: no cardiotoxicity
migration rate [3]: decreased significantly
MDM2 mRNA expression [5]: significantly inhibited
